We go through 30 compounds from ChEMBL document CHEMBL1131670, “N-hydroxyurea and hydroxamic acid inhibitors of cyclooxygenase and 5-lipoxygenase” (Bioorg Med Chem Lett, 1999).

For experiment [1], the target named is T1, Polyunsaturated fatty acid 5-lipoxygenase (Rattus norvegicus) (UniProt P12527).
T1 sequence (whole entry): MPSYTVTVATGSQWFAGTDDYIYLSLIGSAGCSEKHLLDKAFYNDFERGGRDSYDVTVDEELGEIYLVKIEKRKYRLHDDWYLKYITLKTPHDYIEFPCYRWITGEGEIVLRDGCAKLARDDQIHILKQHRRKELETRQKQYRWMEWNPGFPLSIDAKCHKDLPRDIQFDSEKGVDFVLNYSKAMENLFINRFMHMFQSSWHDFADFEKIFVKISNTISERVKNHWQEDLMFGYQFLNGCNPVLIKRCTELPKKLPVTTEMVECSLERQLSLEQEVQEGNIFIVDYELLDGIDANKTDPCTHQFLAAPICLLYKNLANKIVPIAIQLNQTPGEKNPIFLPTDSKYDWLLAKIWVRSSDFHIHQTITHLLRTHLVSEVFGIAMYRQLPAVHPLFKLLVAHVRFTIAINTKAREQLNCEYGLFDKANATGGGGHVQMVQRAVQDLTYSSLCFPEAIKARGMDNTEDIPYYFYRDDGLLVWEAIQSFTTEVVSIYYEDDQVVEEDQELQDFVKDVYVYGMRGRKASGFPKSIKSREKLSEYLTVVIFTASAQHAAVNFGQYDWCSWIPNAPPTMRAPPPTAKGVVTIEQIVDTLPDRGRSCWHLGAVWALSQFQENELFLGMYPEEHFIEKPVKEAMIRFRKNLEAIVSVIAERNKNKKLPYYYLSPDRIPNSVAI
Kind of experiment: Inhibitory activity against 5-lipoxygenase (5-LO) using broken rat […] leukemia cells (RBL-1)at 10 uM. It is filed as cell-based.

The target in experiment [2] is T2, Prostaglandin G/H synthase 1 (Ovis aries) (UniProt P05979).
T2 sequence (whole entry): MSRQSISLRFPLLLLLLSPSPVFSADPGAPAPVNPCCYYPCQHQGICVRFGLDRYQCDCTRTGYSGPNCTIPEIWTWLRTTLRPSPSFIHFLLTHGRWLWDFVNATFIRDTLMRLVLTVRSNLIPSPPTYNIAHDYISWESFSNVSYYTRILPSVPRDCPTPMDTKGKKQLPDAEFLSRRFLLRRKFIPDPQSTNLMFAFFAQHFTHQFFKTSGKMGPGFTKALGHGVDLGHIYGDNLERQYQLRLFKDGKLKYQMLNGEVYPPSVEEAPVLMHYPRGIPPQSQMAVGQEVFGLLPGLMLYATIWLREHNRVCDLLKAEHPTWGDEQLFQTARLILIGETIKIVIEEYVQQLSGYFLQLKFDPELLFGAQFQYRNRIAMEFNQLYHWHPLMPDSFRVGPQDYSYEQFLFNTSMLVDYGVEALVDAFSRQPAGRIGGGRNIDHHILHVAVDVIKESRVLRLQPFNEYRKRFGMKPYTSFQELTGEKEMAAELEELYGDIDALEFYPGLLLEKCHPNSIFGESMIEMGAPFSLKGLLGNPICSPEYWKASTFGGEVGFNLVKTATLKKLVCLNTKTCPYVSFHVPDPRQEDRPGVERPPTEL
The experiment in a line: Inhibitory activity against Cyclooxygenase using sheep seminal vesicle (SSV) enzyme (COX-1)at 10 uM. It is filed as tissue-based.

In experiment [3] the target is T1, Polyunsaturated fatty acid 5-lipoxygenase (Rattus norvegicus). The experiment in a line: Inhibitory activity against 5-lipoxygenase (5-LO) using broken rat […] leukemia cells (RBL-1) at 10 uM. It is filed as cell-based.
The target of experiment [4] is Cyclooxygenase (Rattus norvegicus) (UniProt P35355+Q63921). The experiment in a line: Inhibitory activity against Cyclooxygenase (COX) using broken rat […] leukemia cells (RBL-1) at 10 uM. It is filed as cell-based.
The target of experiment [5] is T3, Cyclooxygenase (Rattus norvegicus, UniProt P35355+Q63921).
T3 sequence (P35355 whole entry): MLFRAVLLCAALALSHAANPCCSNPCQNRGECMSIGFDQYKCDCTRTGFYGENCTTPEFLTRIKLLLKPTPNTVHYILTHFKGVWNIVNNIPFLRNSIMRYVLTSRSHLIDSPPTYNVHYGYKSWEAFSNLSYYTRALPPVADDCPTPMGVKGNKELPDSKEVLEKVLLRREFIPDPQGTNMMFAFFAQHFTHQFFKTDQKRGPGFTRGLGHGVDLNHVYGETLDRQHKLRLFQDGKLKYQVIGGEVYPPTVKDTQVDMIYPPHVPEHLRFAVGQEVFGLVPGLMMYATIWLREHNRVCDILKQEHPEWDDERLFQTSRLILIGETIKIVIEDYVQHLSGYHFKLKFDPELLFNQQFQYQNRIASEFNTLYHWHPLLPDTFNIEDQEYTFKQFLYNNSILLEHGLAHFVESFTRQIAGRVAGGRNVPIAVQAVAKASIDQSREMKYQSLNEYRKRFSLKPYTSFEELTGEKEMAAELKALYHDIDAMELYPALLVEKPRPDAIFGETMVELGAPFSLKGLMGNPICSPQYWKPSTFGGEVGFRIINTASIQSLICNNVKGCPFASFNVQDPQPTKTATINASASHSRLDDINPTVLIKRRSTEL
T3 sequence (Q63921 whole entry): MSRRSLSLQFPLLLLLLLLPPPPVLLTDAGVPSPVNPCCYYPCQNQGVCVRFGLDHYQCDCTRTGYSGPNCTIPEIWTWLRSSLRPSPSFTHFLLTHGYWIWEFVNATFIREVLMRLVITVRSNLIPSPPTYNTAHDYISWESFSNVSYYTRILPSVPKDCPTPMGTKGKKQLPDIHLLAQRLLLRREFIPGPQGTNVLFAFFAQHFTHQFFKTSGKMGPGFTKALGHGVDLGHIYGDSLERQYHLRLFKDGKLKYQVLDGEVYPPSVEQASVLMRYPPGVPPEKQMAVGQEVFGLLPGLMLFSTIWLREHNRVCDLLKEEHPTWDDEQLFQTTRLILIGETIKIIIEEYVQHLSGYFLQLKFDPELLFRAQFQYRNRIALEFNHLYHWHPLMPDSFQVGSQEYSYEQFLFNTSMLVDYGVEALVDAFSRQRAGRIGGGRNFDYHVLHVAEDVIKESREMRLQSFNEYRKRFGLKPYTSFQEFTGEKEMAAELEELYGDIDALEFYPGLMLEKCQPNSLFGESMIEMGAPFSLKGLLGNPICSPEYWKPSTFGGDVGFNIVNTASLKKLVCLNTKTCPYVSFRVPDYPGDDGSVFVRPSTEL
Kind of experiment: Inhibitory activity against cyclooxygenase (COX) in intact rat […] leukemia cells (RBL-1). It is filed as cell-based.

In experiment [6] the target is T3, Cyclooxygenase. Kind of experiment: Inhibitory activity against Cyclooxygenase (COX) using broken rat […] leukemia cells (RBL-1). It is filed as cell-based.
Experiment [7] addresses T2, Prostaglandin G/H synthase 1 (Ovis aries). The experiment in a line: Inhibitory activity against Cyclooxygenase using sheep seminal vesicle (SSV) enzyme (COX-1) at 10 uM. It is filed as tissue-based.

One may read the inhibition as the relative decrease from the control value, in per cent. Lower therefore signals a response near the control. As to `CCCNC(=O)N(O)C(C)C#Cc1cc(-c2ccc(Cl)cc2)n(-c2ccc(OC)cc2)n1` (stereo unspecified), the inhibition in experiment [1] amounted to 82%; in experiment [2] it was 14%.
For the compound `COc1ccc(-n2nc(C#CC(C)N(O)C(=O)c3ccco3)cc2-c2ccc(C)cc2)cc1` (stereo unspecified), the values for the inhibition in experiment [3] and in experiment [4] were 70% and 61%, respectively.
The term IC50 denotes the concentration at which inhibition is half-maximal. High values mean lower potency, low ones higher potency. Consider `COc1ccc(-n2nc(C#CC(C)N(O)C(N)=O)cc2-c2ccc(C)cc2)cc1` (stereo unspecified), for which the concentration for half-maximal inhibition (IC50) is 1.4 µM in experiment [5] and 9.4 µM in experiment [6]. This compound displayed an inhibition in experiment [2] of 10%.
On to `COC(=O)N(O)C(C)C#Cc1cc(-c2ccc(C)cc2)n(-c2ccc(OC)cc2)n1` (stereo unspecified), for which the IC50 in experiment [5] turned out to be 0.49 µM; in experiment [6], 0.14 µM.
Turning to `CCc1ccc(-c2cc(C#CC(C)N(O)C(=O)C(C)C)nn2-c2ccc(OC)cc2)cc1` (stereo unspecified), in experiment [3], the inhibition came out at 93%. Besides, the IC50 in experiment [5] came out at 0.18 µM.
As for `CCC(C#Cc1cc(-c2ccc(Cl)cc2)n(-c2ccc(OC)cc2)n1)N(O)C(N)=O` (stereo unspecified), the inhibition was 91% in experiment [1] and 0% in experiment [2]. Also, the IC50 in experiment [5] was 70.4 µM.
For the compound `COc1ccc(-n2nc(C#CC(C)N(O)C(=O)c3ccccc3)cc2-c2ccc(Cl)cc2)cc1` (stereo unspecified), in experiment [7], the inhibition amounted to 5%. Further, the IC50 in experiment [5] came out at 5.5 µM; in experiment [6], 14.9 µM.
On to `COc1ccc(-n2nc(C#CC(C)N(O)C(=O)N3CCOCC3)cc2-c2ccc(Cl)cc2)cc1` (stereo unspecified), for which the 50% inhibitory concentration (IC50) in experiment [5] came out at 1.6 µM. Also, the inhibition in experiment [2] was 14%.
In turn, `COc1ccc(-n2nc(C#CC(C)N(O)C(N)=O)cc2-c2ccc(Cl)cc2)cc1` (stereo unspecified) returned an IC50 in experiment [5] of 6.2 µM. The same compound yielded an inhibition in experiment [4] of 0%.
In experiment [7], `CCC(C#Cc1cc(-c2ccc(C)cc2)n(-c2ccc(OC)cc2)n1)N(O)C(N)=O` (stereo unspecified) showed an inhibition of 22%. The IC50 in experiment [5] was 2.1 µM; in experiment [6] it was 15.9 µM.
Take `COC(=O)N(O)C(C)C#Cc1cc(-c2ccc(Cl)cc2)n(-c2ccc(OC)cc2)n1` (stereo unspecified): the inhibition in experiment [3] stood at 77%; in experiment [4] it was 84%. In experiment [5], the IC50 worked out at 0.29 µM.
As for `COc1ccc(-n2nc(C#CC(C)N(O)C(=O)C(F)(F)F)cc2-c2ccc(C)cc2)cc1` (stereo unspecified), the IC50 came to 0.19 µM in experiment [5] and 0.05 µM in experiment [6].
Take `CCc1ccc(-c2cc(C#CC(C)N(O)C(=O)CCl)nn2-c2ccc(OC)cc2)cc1` (stereo unspecified): the inhibition in experiment [1] came out at 100%; in experiment [4] it was 86%. In addition, in experiment [5], the half-inhibitory concentration (IC50) stood at 1.7 µM.
For the compound `COc1ccc(-n2nc(C#CC(C(C)C)N(O)C(N)=O)cc2-c2ccc(Cl)cc2)cc1` (stereo unspecified), the inhibition in experiment [7] came to 38%; in experiment [1] it was 90%. Besides, the IC50 in experiment [5] was 14.5 µM.
Consider `CCc1ccc(-c2cc(C#CC(C)N(O)C(C)=O)nn2-c2ccc(OC)cc2)cc1` (stereo unspecified), for which the 50% inhibitory concentration (IC50) in experiment [5] was 0.34 µM; in experiment [6], 0.06 µM.
For `COc1ccc(-n2nc(C#CC(C)N(O)C(=O)C(C)C)cc2-c2ccc(C)cc2)cc1` (stereo unspecified), in that order: 0.09 µM and 0.04 µM.
With `COC(=O)N(O)CC#Cc1cc(-c2ccc(C)cc2)n(-c2ccc(OC)cc2)n1`, the inhibition in experiment [7] is 74%; in experiment [1], 100%. In experiment [5], this compound returned an IC50 of 0.28 µM.
`CCOC(=O)CCC(=O)N(O)C(C)C#Cc1cc(-c2ccc(CC)cc2)n(-c2ccc(OC)cc2)n1` (stereo unspecified): the inhibition was found to be 97% in experiment [3], 3% in experiment [7] and 52% in experiment [4]. In experiment [5], the IC50 came to 14 µM.
On to `CCc1ccc(-c2cc(C#CC(C)N(O)C(=O)OC)nn2-c2ccc(OC)cc2)cc1` (stereo unspecified), for which the inhibition is 21% in experiment [7] and 78% in experiment [1]. The IC50 in experiment [5] stood at 0.75 µM.
In the same order, the values of `COc1ccc(-n2nc(C#CCN(O)C(=O)c3ccncc3)cc2-c2ccc(C)cc2)cc1` are 17%, 89% and 5.5 µM.
Turning to `COc1ccc(-n2nc(C#CCN(O)C(N)=O)cc2-c2ccc(Cl)cc2)cc1`, the inhibition in experiment [7] is 9%; in experiment [4] it was 0%.
In experiment [1], `CCOC(=O)CCC(=O)N(O)C(C)C#Cc1cc(-c2ccc(C)cc2)n(-c2ccc(OC)cc2)n1` (stereo unspecified) had an inhibition of 97%. Further, in experiment [5], the IC50 stood at 10 µM.
As to `COc1ccc(-n2nc(C#CC(C)N(O)C(=O)c3cccnc3)cc2-c2ccc(C)cc2)cc1` (stereo unspecified), the values for the inhibition in experiment [3] and in experiment [4] were 88% and 54%, respectively. In experiment [5], this compound returned a half-inhibitory concentration (IC50) of 11.5 µM.
Take `CCC(=O)N(O)CC#Cc1cc(-c2ccc(C)cc2)n(-c2ccc(OC)cc2)n1`: the results for the inhibition in experiment [7] and in experiment [1] were 79% and 100%, respectively. In experiment [5], this compound came in with an IC50 of 0.06 µM.
In the same order, the values of `CCOC(=O)C(=O)N(O)C(C)C#Cc1cc(-c2ccc(C)cc2)n(-c2ccc(OC)cc2)n1` (stereo unspecified) are 66%, 71% and 3.4 µM.
Regarding `COc1ccc(-n2nc(C#CC(C)N(O)C(=O)N3CCCCC3)cc2-c2ccc(Cl)cc2)cc1` (stereo unspecified), the inhibition in experiment [1] is 76%; in experiment [2], 44%.
As to `CCC(C#Cc1cc(-c2ccc(C)cc2)n(-c2ccc(OC)cc2)n1)N(O)C(C)=O` (stereo unspecified), the IC50 turned out to be 0.22 µM in experiment [5] and 0.01 µM in experiment [6].
As for `COc1ccc(-n2nc(C#CC(C)N(O)C(C)=O)cc2-c2ccc(C)cc2)cc1` (stereo unspecified), the IC50 was found to be 0.11 µM in experiment [5] and 0.01 µM in experiment [6].
As to `COc1ccc(-n2nc(C#CC(C(C)C)N(O)C(N)=O)cc2-c2ccc(C)cc2)cc1` (stereo unspecified), in experiment [7], the inhibition was found to be 29%. In addition, the IC50 in experiment [5] was 1.2 µM; in experiment [6], 4.6 µM.
With `COc1ccc(-n2nc(C#CCN(O)C(=O)c3ccccc3)cc2-c2ccc(C)cc2)cc1`, the inhibition in experiment [7] is 52%; in experiment [1], 100%.
